Assay: Solubility of M4N in formulations containing modified celluloses (visual inspection); on Dissolution After Rotation: key: N represents 'No'; Y represents 'Yes.'
Assay type: physicochemical
Protocol: A 10 mL solution of 50% HP-β-CD (w/v) and 0.5% hydroxypropyl methylcellulose (“HPMC”) (w/v) for use as a solubilizing agent and/or excipient was made as follows: 5.9 mL of water suitable for injection into animals (“WFI”) were placed in a glass beaker containing a stir bar. The beaker was placed on a magnetic plate, and the stir bar was set to stir at medium speed. Five grams of HP-β-CD were added slowly to the stirring WFI, using a spatula to direct the HP-β-CD to the center of the beaker. The HP-β-CD solution was stirred for about 24 hr or until the HP-β-CD was dissolved completely upon visual inspection. The resulting solution measured about 9.4 mL. About 0.6 mL of WFI was added to this resulting solution to reach 10 mL, to produce a solution of 50% HP-β-CD (w/v). Fifty milligrams of HPMC were added to the 50% HP-β-CD solution and stirred for about 1 hr or until the HPMC was dissolved upon visual inspection. The final solution was stirred for about 1 hr and was then stored at room temperature, protected from light. This method of making modified cyclodextrins with modified celluloses may be scaled up or down to obtain the desired volume or concentration of HP-β-CD/HPMC solution. Other modified cyclodextrin/modified cellulose solutions may be similarly made, for example, by substituting HP-β-CD with other modified cyclodextrins, or HPMC with other modified celluloses, in the process described above.
A 10 mL solution of M4N at a concentration of about 10 mg/mL in 50% HP-β-CD/0.5% HPMC was made as follows. About 10 mL of the 50% HP-β-CD/0.5% HPMC solution were added to a glass beaker containing a stir bar. The beaker was placed on a magnetic plate and the stir bar was set to stir at medium speed. About 100 mg of M4N were slowly added to the 50% HP-β-CD/0.5% HPMC in the center of the beaker with the aid of a spatula. The M4N/50% HP-β-CD/0.5% HPMC mixture was stirred for 24 hr or until all M4N was uniformly suspended without any clumps being present. The M4N/50% HP-β-CD/0.5% HPMC mixture was heated at about 90° C. for about 30 min. (or longer if a larger volume of solution was desired, for example, 1 hr at 90° C. for 500 mL of the M4N/50% HP-β-CD/0.5% HPMC mixture), or longer as needed to ensure complete dissolution of M4N. […] The final M4N/50% HP-β-CD/0.5% HPMC solution was stored at room temperature and was kept protected from light.
A 10 mL solution of 5% ethylcellulose (“EC”) in ethanol (w/v) for use as a solubilizing agent and/or excipient was made as follows: 10 mL of 100% ethyl alcohol (“EtOH”) were placed in a glass beaker containing a stir bar, covered by a round Teflon® cover. The beaker was placed on a magnetic plate, and the stir bar was set to stir at medium speed. Five hundred (500) milligrams of EC was added slowly to the stirring ethanol, using a spatula to direct the EC to the center of the beaker so as to prevent EC powder from sticking to the beaker wall. The EC solution was stirred for about 2 hr or until the EC was dissolved completely upon visual inspection. The final solution was stored at room temperature, and was protected from light.
A 10 mL solution of M4N at a concentration of about 20 mg/mL in 5% EC (w/v) (the “EC formulation”) was made as follows. About 10 mL of 5% EC formulation, made as described above, were added to a glass beaker containing a stir bar. The beaker was placed on a magnetic plate and the stir bar was set to stir at medium speed, and covered with a round Teflon® cover. About 200 mg of M4N were slowly added to the 5% EC formulation in the center of the beaker with the aid of a spatula to prevent M4N from sticking to the beaker wall. The M4N/EC mixture was stirred for 2 hr or until all M4N had dissolved or was uniformly suspended without any clumps being present. The M4N/EC mixture was heated at about 60° C. for about 30 min. […]

[1] = 50% HP-β-CD, 0.5% HPMC, M4N 1 mg/mL
[2] = 50% HP-β-CD, 0.5% HPMC, M4N 10 mg/mL
[3] = EC 5% (w/v) in EtOH, M4N 1 mg/mL
[4] = EC 5% (w/v) in EtOH, M4N 10 mg/mL
[5] = EC 5% (w/v) in EtOH, M4N 20 mg/mL

COc1ccc(C[C@@H](C)[C@@H](C)Cc2ccc(OC)c(OC)c2)cc1OC [Formulation M4N, meso-1,4-bis(3,4-dimethoxyphenyl)-2,3-dimethylbutane]
Y at 60 °C: Dissolution After Heating (EC 5% (w/v) in EtOH, M4N 20 mg/mL, 60° C.) | Dissolution After Heating (EC 5% (w/v) in EtOH, M4N 30 mg/mL, 60° C.)
greater than 7 days: Stability at Room Temperature (M4N 1 mg/mL and 10 mg/mL in 50% HP-β-CD/0.5% HPMC, heated at 90° C., after cool down)
did not dissolve: dissolution (M4N 50 mg/mL in 50% HP-β-CD/0.5% HPMC at 90° C.)
>7 days: Stability Time at Room Temperature [1] | Stability Time at Room Temperature [2]
N at 90 °C: Dissolution After Heating (2.3% HPMC, M4N 1 mg/mL, 90° C.) | Dissolution After Heating (2.3% HPMC, M4N 10 mg/mL, 90° C.) | Dissolution After Heating (2.3% HPMC, M4N 50 mg/mL, 90° C.) | Dissolution After Heating (2.3% HPMC, M4N 100 mg/mL, 90° C.) | Dissolution After Heating (50% HP-β-CD, 0.5% HPMC, M4N 50 mg/mL, 90° C.) | Dissolution After Heating (CMC (High Viscosity) 1% (w/v), M4N 1 mg/mL, 90° C.) | Dissolution After Heating (CMC (High Viscosity) 1% (w/v), M4N 10 mg/mL, 90° C.) | Dissolution After Heating (CMC (Low Viscosity) 4%, M4N 1 mg/mL, 90° C.) | Dissolution After Heating (CMC (Low Viscosity) 4%, M4N 10 mg/mL, 90° C.) | Dissolution After Heating (MC (Low viscosity) 2% (w/v), M4N 1 mg/mL, 90° C.) | Dissolution After Heating (MC (Low viscosity) 2% (w/v), M4N 10 mg/mL, 90° C.)
N: Dissolution After Rotation (2.3% HPMC, M4N 1 mg/mL) | Dissolution After Rotation (2.3% HPMC, M4N 10 mg/mL) | Dissolution After Rotation (2.3% HPMC, M4N 50 mg/mL) | Dissolution After Rotation (2.3% HPMC, M4N 100 mg/mL) | Dissolution After Rotation [1] | Dissolution After Rotation [2] | Dissolution After Rotation (50% HP-β-CD, 0.5% HPMC, M4N 50 mg/mL) | Dissolution After Rotation (CMC (High Viscosity) 1% (w/v), M4N 1 mg/mL) | Dissolution After Rotation (CMC (High Viscosity) 1% (w/v), M4N 10 mg/mL) | Dissolution After Rotation (CMC (Low Viscosity) 4%, M4N 1 mg/mL) | Dissolution After Rotation (CMC (Low Viscosity) 4%, M4N 10 mg/mL) | Dissolution After Rotation [4] | Dissolution After Rotation [5] | Dissolution After Rotation (EC 5% (w/v) in EtOH, M4N 30 mg/mL) | Dissolution After Rotation (EC 5% (w/v) in EtOH, M4N 50 mg/mL) | Dissolution After Rotation (EC 5% (w/v) in EtOH, M4N 100 mg/mL) | Dissolution After Rotation (MC (Low viscosity) 2% (w/v), M4N 1 mg/mL) | Dissolution After Rotation (MC (Low viscosity) 2% (w/v), M4N 10 mg/mL)
Y at 40 °C: Dissolution After Heating (EC 5% (w/v) in EtOH, M4N 10 mg/mL, 40° C.)
did not remain in solution upon cooling: solution upon cooling (M4N 30 mg/mL in EC formulation, soluble at 60° C.) | solution upon cooling (M4N 50 mg/mL or 100 mg/mL in EC formulation, soluble at 90° C.)
greater than 3 days: stable at room temperature (M4N 1 mg/mL in EC formulation (5% EC in EtOH), without heat) | stable at room temperature (M4N 10 mg/mL in EC formulation, dissolved at 40° C.) | stable at room temperature (M4N 20 mg/mL in EC formulation, dissolved at 60° C.)
Y at 90 °C: Dissolution After Heating (50% HP-β-CD, 0.5% HPMC, M4N 1 mg/mL, 90° C.) | Dissolution After Heating (50% HP-β-CD, 0.5% HPMC, M4N 10 mg/mL, 90° C.) | Dissolution After Heating (EC 5% (w/v) in EtOH, M4N 50 mg/mL, 90° C.) | Dissolution After Heating (EC 5% (w/v) in EtOH, M4N 100 mg/mL, 90° C.)
>3 days: Stability Time at Room Temperature [3] | Stability Time at Room Temperature [4] | Stability Time at Room Temperature [5]
Y: Dissolution After Rotation [3]
